These results are taken from patent US9975879B2, “Beta lactams as modulators of glutamate uptake and methods for use thereof” (Temple University of the Commonwealth System of Higher …, priority 2013, dated 2018).

Series [1] concerns amyotrophic lateral sclerosis. The following applies: 50 mg daily; after 15 months of treatment; cited from earlier work.
The test system of series [2] is GLT-1. Conditions: 50 mg/kg daily IP, last 6 days of extinction training; cocaine self-administering rats; nucleus accumbens core, normalized to calnexin; FIG. 1.
The test system of series [3] is GLT-1. The following applies: cited from earlier work; for expression of GLT-1: SOD1 mouse model of ALS.
For series [4] the following is noted: rats; Sari et al., 2009; Knackstead et al., 2010; cited from earlier work.
The test system of series [5] is cysteine-glutamate exchanger. The following applies: decreased by repeated cocaine administration; cited from earlier work.
Series [6] concerns GLT-1. The following applies: Rothstein et al., 2005; Lee et al., 2008; cited from earlier work.
Series [7] relates to GLT-1. The following applies: decreased by repeated cocaine administration; cited from earlier work.
A further series deals with planarian. The following applies: planarian model; Rawls et al., 2008; cited from earlier work.
For series [8] the following is noted: cited from earlier work.
The conditions of series [9]: Nakagura et al. (2005); cited from earlier work.

Read-outs that look alike come from different tables or passages of the source.

As for `Nc1nc2ccc(OC(F)(F)F)cc2s1` [Riluzole], the “increase in life expectancy” value in series [1] is on record as 2-3 months.
With `C[C@@H](O)[C@H]1C(=O)N[C@@H]1[C@@H](C)C(=O)N1CCN(C)CC1` [MC-100093], the GLT-1 expression entry in the series on GLT-1 [2] is “restored GLT-1 expression levels to normal”.
In the case of `COc1ccc2c(c1)[nH]c1c(C)nccc12` [Harmine], the “expression of GLT-1” value with GLT-1 [3] is “increases GLT-1 expression”.
On to `CO/N=C(\C(=O)N[C@@H]1C(=O)N2C(C(=O)O)=C(CSc3nc(=O)c(=O)[nH]n3C)CS[C@H]12)c1csc(N)n1` [ceftriaxone], for which, in [4], the “relapse to cocaine seeking” value is given as “prevents relapse to cocaine seeking”. The cysteine-glutamate exchanger levels entry in [5] was “restores”. In addition, the GLT-1 expression result with GLT-1 [6] was “stimulator of GLT-1 expression”. The GLT-1 levels entry in the series on GLT-1 [7] is given as “restores”. Besides, the “abstinence withdrawal from cocaine” value in the series on planarian is reported as “inhibits abstinence withdrawal from cocaine”. Also, the “expression of GLT-1” value with GLT-1 [3] is on record as “increases the expression of GLT-1”. Further, the mean survival time result in the series with GLT-1 [3] (SOD1 mouse) is recorded as “increases the mean survival time”. Further, in series [8] (Chadwick et al., 1983), the “free, unbound cerebrospinal fluid/plasma ratio based on Cmax” value is 2-13%. Moreover, in series [8] (Lutsar and Friedland, 2000), the “free, unbound cerebrospinal fluid/plasma ratio based on AUCs” value is 1%.
Take `CC1CC=NN1C(=O)c1cccnc1` (stereo not shown) [MS-153]: the “conditioned place preference induced by cocaine” value in series [9] was “inhibited the conditioned place preference induced by cocaine”.
